Reference: publication doi:10.1101/2024.11.09.622828v1 (biorxiv, 2024)

Legend:
[1] = molecular target: T1, Porcine pancreatic α-amylase (PPA) (Sus scrofa, UniProt P00690); experiment: DNS reducing sugar assay, […] nm; assay type: biochemical
T1 sequence (P00690 16-511): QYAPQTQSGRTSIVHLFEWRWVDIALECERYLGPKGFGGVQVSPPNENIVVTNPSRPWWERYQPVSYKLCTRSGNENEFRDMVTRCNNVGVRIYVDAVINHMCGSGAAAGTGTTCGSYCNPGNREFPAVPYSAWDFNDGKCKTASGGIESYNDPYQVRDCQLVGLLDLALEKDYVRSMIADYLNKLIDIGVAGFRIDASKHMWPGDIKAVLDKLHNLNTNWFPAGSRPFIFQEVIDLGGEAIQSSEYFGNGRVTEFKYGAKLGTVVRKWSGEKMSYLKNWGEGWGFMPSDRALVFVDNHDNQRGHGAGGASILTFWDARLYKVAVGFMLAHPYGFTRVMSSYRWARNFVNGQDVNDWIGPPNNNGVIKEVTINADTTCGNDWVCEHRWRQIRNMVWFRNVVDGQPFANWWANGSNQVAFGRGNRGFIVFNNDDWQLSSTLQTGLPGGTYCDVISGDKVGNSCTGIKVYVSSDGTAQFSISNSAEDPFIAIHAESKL

[2] = molecular target: LDH-A (lactate dehydrogenase-A); experiment: NADH oxidation at […] nm, crude goat liver enzyme; assay type: biochemical, Capra hircus; settings: 1.8 mM pyruvate, 5 mM NADH, 50 mM Tris pH 7.6

Row | SMILES | IC50 [1] [µM] | IC50 [2] [µM]
1 | O=C1C[C@@H](c2ccc(O)c(O)c2)Oc2cc(O)cc(O)c21 [E, Eriodictyol] | 22 | –
2 | O=c1c(O)c(-c2cc(O)c(O)c(O)c2)oc2cc(O)cc(O)c12 [M, Myricetin] | 24 | –
3 | O=c1c(O)c(-c2ccc(O)c(O)c2)oc2cc(O)cc(O)c12 [Q, Quercetin] | – | 4.16
